Results from PubChem BioAssay AID1963848 (Molecular Pharmacology Branch, DTP, NCI, 2024).

Test system: 379773-124-R-J2-PDC spheroid viability
Test: Anticancer human tumor 379773-124-R-J2-PDC patient-derived endometrial carcinoma cell line growth inhibition [POLQ]
Conditions: spheroids with HUVEC and MSC; for IC50: curve of first compound; for viability, T/C: stronger effect = lower value; active = viability on the fitted dose curve at most 10% of control; inactive = the rest
Procedure: Multicellular complex tumor spheroid response to Polymerase (POL) inhibitors (novobiocin, ART-558, RP6685) in combination with a variety of drugs and investigational agents in selected tumor cell lines
The POL inhibitors (novobiocin, ART-558, and RP6685) were evaluated both individually and in combination with standard of care and investigational anticancer small molecules within a complex spheroid model of solid tumors. . Complex spheroids include a stromal component modeled by human endothelial cells (HUVEC) and fibroblasts modeled by human mesenchymal stem cells (MSCs). The concentration ranges selected for each drug and investigational agent were based upon clinically achievable concentrations if the clinical Cmax of the agent was known.
Compounds. The drugs and investigational agents: novobiocin (NSC847541), ART-558 (NSC835418), RP-6685 (NSC848927), peposertib (NSC802822), ceralasertib (NSC780249), elimusertib (NSC800525), camonsertib (NSC841442), AZD-1390 (NSC803789), olaparib (NSC753686), talazoparib (NSC767125), rucaparib (NSC756644), sotorasib (NSC818433), MRTX-1133 (NSC836407), SN-38 (NSC673596), topotecan (NSC609699), epotoside (NSC141540), doxorubicin (NSC123127), gemcitabine (NSC613327), 5-fluorouracil (NSC19893), paclitaxel (NSC125973), vemurafenib (NSC761431), MSA-2 (NSC828583), SN-011 (NSC837082), adavosertib (NSC754352), prexasertib (NSC758257), carboplatin (NSC241240) and oxaliplatin (NSC266046), were obtained from the National Cancer Institute (NCI) Developmental Therapeutics Program Chemical Repository (21). The FDA-approved anticancer drug set is available from the Developmental Therapeutics Program at https://dtp.cancer.gov/organization/dscb/obtaining/. […] The stock solutions were prepared in dimethyl sulfoxide (DMSO, Sigma-Aldrich, St. Louis, MO, cat. D2650), except for the platinum compounds which were prepared in saline (Quality Biological, Gaithersburg, MD, cat. 114-055-101), at 800-fold the tested concentration and stored at -70 degrees C prior to their use. All drugs and investigational agents were tested over a range starting from a high concentration at or near the clinical Cmax and decreasing in half-log increments. If the clinical Cmax for an agent had not been determined, the highest concentration tested was 10 microM, except for SN-38, which was tested at a high concentration of 1 microM.
Cell Culture. All cells were maintained in an incubator at 37 degrees C and 5% CO2 with 95% humidity. The PDC lines were cultured according to standard operating procedures established by the NCI PDMR (https://pdmr.cancer.gov). Table 3 of the manuscript, lists the cell lines along with the number of the three cell types plated to form the mct-spheroids and media for tumor cell growth. After thawing, all PDC lines, except 997537-175-T-J1-PDC and 415267-285-R-J2-PDC, were cultured in Matrigel-coated flasks prepared with a working solution of 1X Ham's F-12 nutrient mix, without supplementation (Thermo Fisher Scientific, cat. 11765054), 100 U/mL penicillin-streptomycin (Thermo Fisher Scientific, cat. 15140122), and 2.5% Matrigel (Corning Inc., Corning, NY, cat. 354248) for the first three passages. The two PDC lines 997537-175-T-J1-PDC and 415267-285-R-J2-PDC were cultured on uncoated flasks. The 857933-349-R-J2-PDC line was cultured in 6C/Colon 1B media containing advanced DMEM/F-12 (Thermo Fisher Scientific, cat. 12634028), 10 mM HEPES (Thermo Fisher Scientific, cat. 15630080), 1X GlutaMAX supplement (Thermo Fisher Scientific, cat. 35050061), 0.1 mg/mL primocin (InvivoGen, San Diego, CA, cat. ant-pm-2), 10% defined fetal bovine serum, heat inactivated (HyClone Laboratories Inc., Logan, UT, cat. SH30070.03HI), 50% L-WRN conditioned media (ATCC, cat. CRL-3276), 1.25 mM N-Acetyl-L-cysteine (Sigma-Aldrich, cat. A9165), 10 mM nicotinamide (Sigma-Aldrich, cat. N0636), 1X B-27 supplement (Thermo Fisher Scientific, cat. 17504044), 1X N-2 supplement (Thermo Fisher Scientific, cat. […]
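Also: spheroids exposed to drugs for seven days before readout.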
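For viability, T/C in this document: percent viability relative to DMSO vehicle control taken as 100%.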

O=C(c1cc(Cc2n[nH]c(=O)c3ccccc23)ccc1F)N1CCN(C(=O)C2CC2)CC1 + Cc1cccc(N(C)C(=O)C2C(O)CCN2c2nc(C)cc(C(F)(F)F)c2C#N)c1
6.72 µM: IC50 (second compound 3.16 µM)
6.14 µM: IC50 (second compound 10 µM)
inactive: viability, T/C (second compound 0.0316 µM, first compound 0.0316 µM) 79.5% | viability, T/C (second compound 0.0316 µM, first compound 0.1 µM) 89.5% | viability, T/C (second compound 0.0316 µM, first compound 0.316 µM) 83.8% | viability, T/C (second compound 0.0316 µM, first compound 1 µM) 80.9% | viability, T/C (second compound 0.0316 µM, first compound 3.16 µM) 76.8% | viability, T/C (second compound 0.0316 µM, first compound 10 µM) 32.7% | viability, T/C (second compound 0.1 µM, first compound 0.0316 µM) 89.2% | viability, T/C (second compound 0.1 µM, first compound 0.1 µM) 89.6% | viability, T/C (second compound 0.1 µM, first compound 0.316 µM) 75.7% | viability, T/C (second compound 0.1 µM, first compound 1 µM) 75.8% | viability, T/C (second compound 0.1 µM, first compound 3.16 µM) 74.1% | viability, T/C (second compound 0.1 µM, first compound 10 µM) 42.5% | viability, T/C (second compound 0.316 µM, first compound 0.0316 µM) 90.2% | viability, T/C (second compound 0.316 µM, first compound 0.1 µM) 80.2% | viability, T/C (second compound 0.316 µM, first compound 0.316 µM) 82.8% | viability, T/C (second compound 0.316 µM, first compound 1 µM) 85.3% | viability, T/C (second compound 0.316 µM, first compound 3.16 µM) 71.7% | viability, T/C (second compound 0.316 µM, first compound 10 µM) 45.1% | viability, T/C (second compound 1 µM, first compound 0.0316 µM) 88.3% | viability, T/C (second compound 1 µM, first compound 0.1 µM) 87.9% | viability, T/C (second compound 1 µM, first compound 0.316 µM) 77.7% | viability, T/C (second compound 1 µM, first compound 1 µM) 83.5% | viability, T/C (second compound 1 µM, first compound 3.16 µM) 95.4% | viability, T/C (second compound 1 µM, first compound 10 µM) 42.2% | viability, T/C (second compound 3.16 µM, first compound 0.0316 µM) 73.5% | viability, T/C (second compound 3.16 µM, first compound 0.1 µM) 78.4% | viability, T/C (second compound 3.16 µM, first compound 0.316 µM) 81.5% | viability, T/C (second compound 3.16 µM, first compound 1 µM) 76.7% | viability, T/C (second compound 3.16 µM, first compound 3.16 µM) 97.2% | viability, T/C (second compound 3.16 µM, first compound 10 µM) 33.4% | viability, T/C (second compound 10 µM, first compound 0.0316 µM) 78.2% | viability, T/C (second compound 10 µM, first compound 0.1 µM) 78.9% | viability, T/C (second compound 10 µM, first compound 0.316 µM) 85.5% | viability, T/C (second compound 10 µM, first compound 1 µM) 72.4% | viability, T/C (second compound 10 µM, first compound 3.16 µM) 73.4% | viability, T/C (second compound 10 µM, first compound 10 µM) 33.7%
6.37 µM: IC50 (second compound 0.0316 µM)
8.22 µM: IC50 (second compound 0.316 µM)
7.6 µM: IC50 (second compound 0.1 µM)
8.16 µM: IC50 (second compound 1 µM)
